Reference: patent US9937156B2, “Modulation of MRTF-A activity in pathologic fibrosis and wound healing” (The Board of Regents of the University of Texas System, priority 2013, dated 2018)

Tested on: tail tip fibroblasts (TTFs), MRTF-A KO and WT
Experiment: SMA expression in tail tip fibroblasts from MRTF-A KO and WT mice
Type: cell-based, mouse
Conditions: TGF-β1 48 hrs
Description: Mouse NIH/3T3 and human BR5 fibroblasts were grown as in DMEM supplemented with 10% BCS or FBS at 37° C. in a 5% CO2 incubator as previously described (Rhee et al., 2007). Primary mouse tail tip fibroblasts (TTFs) were isolated from 6- to 8-wk-old myocardin-related transcription factor (MRTF)-A−/− or wild-type littermates and cultured in DMEM supplemented with 10% FBS, nonessential amino acids, L-glutamine, and sodium pyruvate as described previously (Song et al., 2012). Once TTFs became confluent, cells were frozen in 10% DMSO containing growth media for future use before passage 3.
NIH/3T3 cells were transfected with 10 ng empty flag or flag epitope-tagged MRTF-A vector along with 100 ng smooth muscle a-actin (SMA), atrial natriuretic factor (ANF), SM22, or skeletal actin (SKA) luciferase reporter and 20 ng of β-galactosidase (β-gal) expression construct using Fugene6 (Roche). Plasmid DNA content was kept constant using empty pcDNA3.1-flag. BR5, NIH/3T3, or TTF cells were infected with adenovirus directing the expression of flag-MRTF-A, HA-MRTF-A, or β-gal as control at the multiplicity of infection (MOI) noted in the text. For experiments using chemical compounds or growth factors, cells were cultured in serum-free media (SF) for 24 h before treatment, followed by an additional 24- to 48-hr incubation in SF media treated with TGF-β1 (10 ng/mL, R&D Systems) solubilized in 4 mM HCl/1% BSA/PBS or isoxazole (20 μM) solubilized inDMSO.
Cells were treated with the indicated factor for 24 h before fixation with methanol at −20° C. for 10 min. Indirect immunofluorescence was performed by incubating with the following primary antibodies at 4° C. overnight: mouse monoclonal Cy3-conjugated anti-SMA antibody (Sigma, clone 1A4, 1:200) and rabbit monoclonal anti-HA antibody (Cell Signaling, 1:300). A secondary goat Alexa Fluor 488-conjugated anti-rabbit IgG antibody (Invitrogen, 1:200) was used to visualize HA by incubation at RT for 1 hr. All images were captured using an Olympus IX81 confocal microscope. […]

“TGF-β1: growth factor (R&D Systems) used at 10 ng/mL to stimulate fibroblast differentiation” was tested, and the “expression of genes encoding SMC contractile proteins (SMA and SM22), qPCR and Western blot” value (MRTF-A-deficient TTFs) was “blunted”, the SMA-positive stress fibers (MRTF-A-deficient fibroblasts) was “did not display an enrichment” and the “morphology and SMA-positive stress fibers” value (WT fibroblasts) was “adopting an elongated morphology and producing SMA-positive stress fibers”.
